Columns and labels:
[1] = test system: d-amphetamine-induced stereotypes; assay: potentiation of d-amphetamine-induced stereotypes, in rats; assay type: in vivo; conditions: at 3 mg/kg, p.o.
Description: potentiation of d-amphetamine-induced stereotypes, in rats;
(§1) The test materials were administered as the hydrochlorides, either intraperitoneally (or intravenously, in the course of cardiovascular tests), or orally.

[2] = test system: blood pressure, femoral rate of flow; assay: cardiovascular action: blood pressure and femoral rate of flow, in dogs; assay type: in vivo; conditions: i.v.
Description: determination of the blood pressure, of the femoral rate of flow and of the heart rate, and research for an antagonism or a potentiation of the catecholamines (epinephrine norepinephrine) on said parameters, in dogs; The test materials were administered as the hydrochlorides, either intraperitoneally (or intravenously, in the course of cardiovascular tests), or orally.

acute toxicity, in mice = assay type: in vivo; conditions: for LD50: mouse, in vivo, mice
Description: as §1
Acute toxicity, in mice, is low, both intraperitoneally and orally.

isolated saphena vein = assay: action on the unstriated fibers of the isolated saphena vein, in vitro; design: species or system dogs; conditions: for Action on isolated veins: at 2 × 10^-6 g/ml
Text: (§2) research of an action on the unstriated fibers of the isolated saphena vein in dogs, and of the isolated ear artery of rabbits, in vitro.

[3] = test system: spontaneous motor activity; assay: spontaneous motor activity, in mice; assay type: in vivo; conditions: at 3 mg/kg, p.o.
Description: determination of the spontaneous motor activity, in mice; The test materials were administered as the hydrochlorides, either intraperitoneally (or intravenously, in the course of cardiovascular tests), or orally.

[4] = test system: edema of the paw on subcutaneous carrageenin injection; assay: inhibition of edema of the paw on subcutaneous carrageenin injection, in rats; assay type: in vivo; conditions: Rattus norvegicus, po, read-out: Anti-inflammatory action ED50 p.o.
Description: inhibition of edema of the paw on subcutaneous carrageenin injection, in rats; The test materials were administered as the hydrochlorides, either intraperitoneally (or intravenously, in the course of cardiovascular tests), or orally.

food intake = assay: anorexiant effect (decreased food intake, in rats); assay type: in vivo; conditions: at 3 mg/kg, p.o.
Description: as §1
a central stimulant effect (increase of spontaneous motility, of amphetamine-induced stereotypes; of the antagonism of reserpine), sometimes accompanied by an anorexiant effect (decreased food intake, in rats);

[5] = test system: gastric ulcers due to stress; assay: inhibition of gastric ulcers due to stress, in rats; assay type: in vivo
isolated ear artery = assay: action on the unstriated fibers of the isolated ear artery, in vitro; design: species or system rabbits; conditions: for Action on isolated arteries: at 2 × 10^-6 g/ml
Text: as §2

hypoxic asphyxia = assay: cerebral protecting effect against hypoxic asphyxia under a reduced oxygen pressure; assay type: in vivo
[6] = test system: pain, in mice placed on a heating plate; assay: Eddy test: inhibition of pain, in mice placed on a heating plate; assay type: in vivo; conditions: Mus musculus, po, read-out: Analgesic action, Eddy test ED50 p.o.
Description: inhibition of pain, in mice placed on a heating plate (Eddy test) The test materials were administered as the hydrochlorides, either intraperitoneally (or intravenously, in the course of cardiovascular tests), or orally.

[7] = test system: pain contractions subsequent to intraperitoneal injection of 0.75% acetic acid; assay: Koster test: antagonism to pain contractions after intraperitoneal acetic acid, in mice; assay type: in vivo; conditions: Mus musculus, po, read-out: Analgesic action, Koster test ED50 p.o.
Description: antagonism to the pain contractions subsequent to intraperitoneal injection of 0.75% acetic acid, in mice (Koster test) The test materials were administered as the hydrochlorides, either intraperitoneally (or intravenously, in the course of cardiovascular tests), or orally.

[8] = test system: reserpine-induced palpebral ptosis; assay: antagonism of reserpine-induced palpebral ptosis, in rats; assay type: in vivo; conditions: Rattus norvegicus, po, as hydrochloride
Description: antagonism of reserpine-induced palpebral ptosis, in rats; The test materials were administered as the hydrochlorides, either intraperitoneally (or intravenously, in the course of cardiovascular tests), or orally.

Structure (SMILES) | Action on amphetamine-induced stereotypes [1] | Cardiovascular action: blood pressure ([2]; 1-5 mg/kg) | Cardiovascular action: femoral rate of flow ([2]; 1-5 mg/kg) | toxicity at the active dosages (acute toxicity, in mice; at the active dosages) | LD50 (acute toxicity, in mice; ip) | LD50 (acute toxicity, in mice; po) | Action on the isolated vein (isolated saphena vein; concentration not given) | Action on spontaneous motility [3] | ED50 [4] | Anorexiant action (food intake) | inhibiting effect on the development of gastric ulcers due to stress [5] | Action on the isolated artery (isolated ear artery; concentration not given) | cerebral protecting effect against hypoxic asphyxia (hypoxic asphyxia) | ED50 [6] | ED50 [7] | inhibition at 10 mg/kg [8] | Cardiovascular action: blood pressure ([2]; 0.5 mg/kg) | Action on isolated veins (isolated saphena vein) | Action on isolated arteries (isolated ear artery) | Cardiovascular action: blood pressure ([2]; 1 mg/kg)
CNC1CCc2ncsc2C1.Cl (centres unmarked) [Example 3, 6-Methylamino-4,5,6,7-tetrahydro-benzo[d]thiazole hydrochloride] | Increase | Hypertension | substantial increase | does not exhibit noteworthy toxicity | > 200 mg/kg | > 200 mg/kg | Contraction | Increase | < 30 mg/kg | Anorexiant action | potent inhibiting effect | 0 | marked cerebral protecting effect | ≤ 3 mg/kg | 5 mg/kg | – | – | – | – | –
Cc1nc2c(s1)CC(N)CC2.Cl (centres unmarked) [Example 1, 2-Methyl-6-amino-4,5,6,7-tetrahydro-benzo[d]thiazole hydrochloride] | – | Hypertension | – | – | < 100 mg/kg | > 200 mg/kg | – | – | 30 mg/kg | – | – | – | – | – | – | 40% | Hypotension | Contraction | Contraction | –
NC1CCc2scnc2C1 (centres unmarked) [Example 7, 5-Amino-4,5,6,7-tetrahydro-benzo[d]thiazole] | – | – | – | – | > 200 mg/kg | > 200 mg/kg | – | – | – | – | – | – | – | – | – | – | – | – | – | –
CNC1CCCc2scnc21 (centres unmarked) [Example 4, 4-Methylamino-4,5,6,7-tetrahydro-benzo[d]thiazole] | – | – | – | – | > 200 mg/kg | > 200 mg/kg | – | – | – | – | – | – | – | – | – | – | – | – | – | –
CNC1CCc2nc(C)sc2C1 (centres unmarked) [Example 2, 2-Methyl-6-methylamino-4,5,6,7-benzo[d]thiazole] | Increase | – | – | – | ≥ 100 mg/kg | > 200 mg/kg | – | – | ≤ 10 mg/kg | anorexiant action | – | – | – | 3 mg/kg | 30 mg/kg | – | Hypotension | Contraction | Contraction | Hypertension

Reference: US4208420A, “New benzo [d] thiazole derivatives, process for their preparation and their therapeutic applications” (priority 1977, dated 1980)
